Source: EP0144459A1, “Prostaglandins, their preparation and pharmaceutical compositions” (Dr. Willmar Schwabe GmbH & Co., priority 1983, dated 1985)

Tests used:
[1] = system: isolierte Kaninchenaortastreifen; test: Contractile effect on isolated rabbit aorta strips, dose-response compared with PGF2α (method of J.R. Vane); set-up: species or system Kaninchen; details: isolated rabbit aorta strip
Source text: Zum Beispiel wurde die kontrahierende Wirkung von (15R)-12-epi-PGF2ß an einem isolierten Kaninchenaortastreifen mit der des natürlichen PGF2α verglichen. […] Die Wirkung dieser erfindungsgemäßen Verbindung setzt bei etwa 3-10^-6M/lein (vgl. Abb. 1). In dieser Konzentration ist das (15-S)-Epimere des 12 epi-PGF2ßunwirksam. [drawing]
Abb. 1 Kontraktile Wirkung von (15R)-12-epi-PGF2β (x) und PGF2α (.) auf isolierte Kaninchenaortastreifen in Abhängigkeit von der Dosis. (c = Konzentration; K = Kontraktionskraft) (Gemessen nach: J.R. Vane, Br.J. Pharmacol. Chemother. 23, 360-373 (1964)).

[2] = system: Langendorff-Herz; isolierte Aorta - Tracheen- und Fundus-Streifen; Kreislauf von Meerschweinchen und Hund; test: Battery of further pharmacological tests compared with PGF2α: Langendorff heart (coronary flow, heart rate, inotropy); isolated aorta, trachea and fundus strips; circulation of guinea pig and dog (blood pressure, heart rate); details: in all tests of the battery, compared with natural PGF2α
Source text: In mehreren anderen Tests wurden (15R)- und (15S)-12-epi-PGF2ß sowie die beiden analogen erfindungsgemäßen 15-Mithylverbindungen mit dem bekannten PGF2α verßlichen. […] Die 15-Methyl-Derivate der 12-epi-PGF2β zeigen analoge Unterschiede der Wirkungsqualität der jeweiligen 15Rund l5S-Epimeren.

| SMILES | Wirkungsstärke (kontrahierende Wirkung) im Vergleich zu PGF2α ([1]; dose-response curve runs parallel to that of PGF2α) | minimal effective concentration ([1]; threshold concentration of the contractile effect (Abb. 1), read-out: Konzentration, bei der die kontrahierende Wirkung einsetzt) [µM] | Wirkungsqualität [2] | kontrahierende Wirkung ([1]; at the concentration of about 3-10^-6M/l) |
| --- | --- | --- | --- | --- |
| CCCCC[C@@H](O)/C=C/[C@H]1[C@@H](C/C=C\CCCC(=O)O)[C@H](O)C[C@H]1O [(15R)-12-epi-PGF2β, 15R-12-epi-PGF2β] | ca. eine Zehnerpotenz niedrigeren Wirkungsstärke | ~3 | parallel zu den Wirkungen des natürlichen PGF2α | – |
| CCCCC[C@H](O)/C=C/[C@H]1[C@@H](C/C=C\CCCC(=O)O)[C@H](O)C[C@H]1O [(15S)-12-epi-PGF2β, 12-epi-PGF2β] | – | – | PGE2-ähnliche Wirkung | unwirksam |
